Experimental data from PubChem BioAssay AID2060902 (Molecular Pharmacology Branch, DTP, NCI, 2025).

Tested on: 485368-065-R3-J5-PDC spheroids with HUVEC/MSC, viability
Experiment: Anticancer human tumor 485368-065-R3-J5-PDC patient-derived pancreatic carcinoma cell line growth inhibition [RAS]
Details: for IC50: curve of first compound; for viability, T/C: stronger effect = lower value
Excerpt: RAS pathway inhibitors in Combinations in Complex Spheroids
A high-throughput screen of multi-cell type tumor spheroids was designed to identify active combinations of RAS pathway inhibitors and targeted small molecules. Complex spheroids include a stromal component modeled by human endothelial cells (HUVEC) and fibroblasts modeled by human mesenchymal stem cells (MSCs). The concentration ranges selected for each drug and investigational agent were based upon clinically achievable concentrations if the clinical Cmax of the agent was known.
Compounds. The drugs and investigational agents: abemaciclib (NSC768073), cobimetinib (NSC768068), divarasib (GDC6063, NSC841802), docetaxel (NSC628503), GDC-1971 (RLY-1971, NSC841576), gemcitabine (NSC613327), inavolisib (NSC800729), ipatasertib (NSC767898), KB-0742 (NSC834161), MRTX-1133 (NSC836407), osimertinib (NSC779217), RMC-4630 (NSC839698), RMC-6236 (NSC851965), RMC-6291 (NSC852671), Ro-3306 (NSC812927), sapanisertib (NSC764658), SN-38 (NSC673596), staurosporine (NSC755774), SY5609 (NSC837396), and tovorafenib (DAY101, NSC766906), were obtained from the National Cancer Institute (NCI) Developmental Therapeutics Program Chemical Repository. The FDA-approved anticancer drug set is available from the NCI Developmental Therapeutics Program. […] The stock solutions were prepared in dimethyl sulfoxide (DMSO, Sigma-Aldrich, St. Louis, MO, cat. D2650) at 800-fold the tested concentration and stored at -70 degrees C prior to their use. All drugs and investigational agents were tested over a range starting from a high concentration at or near the clinical Cmax and decreasing in half-log increments. If the clinical Cmax for an agent had not been determined, the highest concentration tested was 10 microM.
Cell Culture. All cells were maintained in an incubator at 37 degrees C and 5% CO2 with 95% humidity. The PDC lines were cultured according to standard operating procedures established by the NCI PDMR. All PDCs were thawed and cultured in Matrigel-coated flasks prepared with a working solution of 1X Ham's F-12 nutrient mix, without supplementation (Invitrogen, Waltham, MA, cat. 11765054), 100 U/mL penicillin-streptomycin (Invitrogen, cat. 15140122), and 2.5% Matrigel (Corning Inc., Corning, NY, cat. 354248) for the first three passages. The 362531-283-R-J2-PDC and 782815-120-R-J1-PDC lines were cultured in 6C/Colon 1B media, which includes advanced DMEM/F-12 (Thermo Fisher Scientific, cat. 12634028), 10 mM HEPES (Thermo Fisher Scientific, cat. 15630080), 1X GlutaMAX supplement (Thermo Fisher Scientific, cat. 35050061), 0.1 mg/mL primocin (InvivoGen, San Diego, CA, cat. ant-pm-2), 10% defined fetal bovine serum, heat inactivated (HyClone Laboratories Inc., Logan, UT, cat. SH30070.03HI), 50% L-WRN conditioned media (ATCC, cat. CRL-3276), 1.25 mM N-Acetyl-L-cysteine (Sigma-Aldrich, cat. A9165), 10 mM nicotinamide (Sigma-Aldrich, cat. N0636), 1X B-27 supplement (Thermo Fisher Scientific, cat. 17504044), 1X N-2 supplement (Thermo Fisher Scientific, cat. 17502048), 50 ng/mL human EGF (Thermo Fisher Scientific, cat. PHG0311), and 10 microM Y-27632 dihydrochloride (Tocris Bioscience, cat. 1254). The K12877-001-R-J1-PDC line was cultured in 6I media, which includes all 6C/Colon 1B media plus 10 ng/mL human FGF-10 (PeproTech, cat. 100-26), 1 ng/mL human FGF-2 (PeproTech, cat. 100-18B), 1 µM prostaglandin E2 (Tocris Bioscience, cat. 2296), […] hydrocortisone (Sigma-Aldrich, cat. H4001), and […] bovine insulin (Sigma-Aldrich, cat. I6634). The K86415-001-R-J1-PDC line was cultured in 6D media, which includes all 6C/Colon 1B media components minus the L-WRN conditioned media. The 485176-168-R4-J1-PDC was cultured in PANC media, which includes all 6C/Colon 1B media plus 100 ng/mL human FGF-10 (PeproTech, cat. 100-26), 500 nM SB-431542 (Selleckchem, cat. S1067), and 10 nM gastrin (Tocris Bioscience, cat. 3006). […]
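Further: spheroids exposed to agents for seven days before readout.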

CC1(C)CCC(Nc2ncc(C(F)(F)F)c(-c3c[nH]c4c(P(C)(C)=O)c(C#N)ccc34)n2)CN1 (centres undefined) + C#Cc1c(F)ccc2cc(O)cc(-c3ncc4c(N5CC6CCC(C5)N6)nc(OCC56CCCN5CC(F)C6)nc4c3F)c12
IC50 (second compound 0.0316 µM): 3.18 nM
IC50 (second compound 0.1 µM): 3.83 nM
IC50 (second compound 0.316 µM): 4.39 nM
IC50 (second compound 1 µM): 4.77 nM
IC50 (second compound 3.16 µM): 4.85 nM
IC50 (second compound 10 µM): < 0.949 nM
viability, T/C (second compound 0.0316 µM, first compound 0.000949 µM): 89.8%
viability, T/C (second compound 0.0316 µM, first compound 0.003 µM): 51.1%
viability, T/C (second compound 0.0316 µM, first compound 0.00949 µM): 33.6%
viability, T/C (second compound 0.0316 µM, first compound 0.03 µM): 31%
viability, T/C (second compound 0.0316 µM, first compound 0.0949 µM): 27.3%
viability, T/C (second compound 0.0316 µM, first compound 0.3 µM): 30.2%
viability, T/C (second compound 0.1 µM, first compound 0.000949 µM): 92.7%
viability, T/C (second compound 0.1 µM, first compound 0.003 µM): 53.2%
viability, T/C (second compound 0.1 µM, first compound 0.00949 µM): 38.5%
viability, T/C (second compound 0.1 µM, first compound 0.03 µM): 29.4%
viability, T/C (second compound 0.1 µM, first compound 0.0949 µM): 27.7%
viability, T/C (second compound 0.1 µM, first compound 0.3 µM): 33.6%
viability, T/C (second compound 0.316 µM, first compound 0.000949 µM): 91.5%
viability, T/C (second compound 0.316 µM, first compound 0.003 µM): 56.4%
viability, T/C (second compound 0.316 µM, first compound 0.00949 µM): 36.4%
viability, T/C (second compound 0.316 µM, first compound 0.03 µM): 33.6%
viability, T/C (second compound 0.316 µM, first compound 0.0949 µM): 30.1%
viability, T/C (second compound 0.316 µM, first compound 0.3 µM): 28.8%
viability, T/C (second compound 1 µM, first compound 0.000949 µM): 85.2%
viability, T/C (second compound 1 µM, first compound 0.003 µM): 55.8%
viability, T/C (second compound 1 µM, first compound 0.00949 µM): 40.7%
viability, T/C (second compound 1 µM, first compound 0.03 µM): 36%
viability, T/C (second compound 1 µM, first compound 0.0949 µM): 30.8%
viability, T/C (second compound 1 µM, first compound 0.3 µM): 31.1%
viability, T/C (second compound 3.16 µM, first compound 0.000949 µM): 72.3%
viability, T/C (second compound 3.16 µM, first compound 0.003 µM): 56.3%
viability, T/C (second compound 3.16 µM, first compound 0.00949 µM): 41.2%
viability, T/C (second compound 3.16 µM, first compound 0.03 µM): 36.5%
viability, T/C (second compound 3.16 µM, first compound 0.0949 µM): 36.9%
viability, T/C (second compound 3.16 µM, first compound 0.3 µM): 35.6%
viability, T/C (second compound 10 µM, first compound 0.000949 µM): 41.6%
viability, T/C (second compound 10 µM, first compound 0.003 µM): 38.1%
viability, T/C (second compound 10 µM, first compound 0.00949 µM): 31.4%
viability, T/C (second compound 10 µM, first compound 0.03 µM): 35.4%
viability, T/C (second compound 10 µM, first compound 0.0949 µM): 30.4%
viability, T/C (second compound 10 µM, first compound 0.3 µM): 27.8%

CCc1c2c(nc3ccc(O)cc13)-c1cc3c(c(=O)n1C2)COC(=O)[C@]3(O)CC + CCn1c(-c2cccnc2C(C)OC)c2c3cc(ccc31)N1CCOC(CC(NC(=O)C(C(C)C)N(C)C(=O)C3(F)CCN(C(=O)C#CC(C)(C)N(C)C)CC3)C(=O)N3CCCC(N3)C(=O)OCC(C)(C)C2)C1
IC50 (second compound 0.000949 µM): 2.21 nM
IC50 (second compound 0.003 µM): 2.28 nM
IC50 (second compound 0.00949 µM): 2.14 nM
IC50 (second compound 0.03 µM): 2.27 nM
IC50 (second compound 0.0949 µM): 2.05 nM
IC50 (second compound 0.3 µM): 2.01 nM
viability, T/C (second compound 0.000949 µM, first compound 0.000949 µM): 84.3%
viability, T/C (second compound 0.000949 µM, first compound 0.003 µM): 36.9%
viability, T/C (second compound 0.000949 µM, first compound 0.00949 µM): 17%
viability, T/C (second compound 0.000949 µM, first compound 0.03 µM): 7.78%
viability, T/C (second compound 0.000949 µM, first compound 0.0949 µM): 3.95%
viability, T/C (second compound 0.000949 µM, first compound 0.3 µM): 3.3%
viability, T/C (second compound 0.003 µM, first compound 0.000949 µM): 84.1%
viability, T/C (second compound 0.003 µM, first compound 0.003 µM): 39.3%
viability, T/C (second compound 0.003 µM, first compound 0.00949 µM): 15.1%
viability, T/C (second compound 0.003 µM, first compound 0.03 µM): 6.58%
viability, T/C (second compound 0.003 µM, first compound 0.0949 µM): 5.33%
viability, T/C (second compound 0.003 µM, first compound 0.3 µM): 2.88%
viability, T/C (second compound 0.00949 µM, first compound 0.000949 µM): 76.9%
viability, T/C (second compound 0.00949 µM, first compound 0.003 µM): 39.2%
viability, T/C (second compound 0.00949 µM, first compound 0.00949 µM): 14.8%
viability, T/C (second compound 0.00949 µM, first compound 0.03 µM): 8.64%
viability, T/C (second compound 0.00949 µM, first compound 0.0949 µM): 4.69%
viability, T/C (second compound 0.00949 µM, first compound 0.3 µM): 3.02%
viability, T/C (second compound 0.03 µM, first compound 0.000949 µM): 88.8%
viability, T/C (second compound 0.03 µM, first compound 0.003 µM): 37.2%
viability, T/C (second compound 0.03 µM, first compound 0.00949 µM): 15.9%
viability, T/C (second compound 0.03 µM, first compound 0.03 µM): 8.19%
viability, T/C (second compound 0.03 µM, first compound 0.0949 µM): 3.98%
viability, T/C (second compound 0.03 µM, first compound 0.3 µM): 2.16%
viability, T/C (second compound 0.0949 µM, first compound 0.000949 µM): 88.1%
viability, T/C (second compound 0.0949 µM, first compound 0.003 µM): 29.7%
viability, T/C (second compound 0.0949 µM, first compound 0.00949 µM): 14.8%
viability, T/C (second compound 0.0949 µM, first compound 0.03 µM): 6.96%
viability, T/C (second compound 0.0949 µM, first compound 0.0949 µM): 4.68%
viability, T/C (second compound 0.0949 µM, first compound 0.3 µM): 2.71%
viability, T/C (second compound 0.3 µM, first compound 0.000949 µM): 82.5%
viability, T/C (second compound 0.3 µM, first compound 0.003 µM): 32.2%
viability, T/C (second compound 0.3 µM, first compound 0.00949 µM): 12.6%
viability, T/C (second compound 0.3 µM, first compound 0.03 µM): 9.2%
viability, T/C (second compound 0.3 µM, first compound 0.0949 µM): 5.3%
viability, T/C (second compound 0.3 µM, first compound 0.3 µM): 2.3%
